The record followed here is patent US20240197828A1, “Chimeric molecule to treat sepsis and other inflammatory conditions” (THE FEINSTEIN INSTITUTES FOR MEDICAL RESEARCH, priority 2022, published 2024).

Usually Kd stands for the equilibrium constant for the complex coming apart.

The experiment addresses T1, αvβ3-integrin (Mus musculus, UniProt O54890+P43406).
T1 construct: purchased R&D Systems 7889-AV-050
T1 sequence (P43406 31-988 limits assumed): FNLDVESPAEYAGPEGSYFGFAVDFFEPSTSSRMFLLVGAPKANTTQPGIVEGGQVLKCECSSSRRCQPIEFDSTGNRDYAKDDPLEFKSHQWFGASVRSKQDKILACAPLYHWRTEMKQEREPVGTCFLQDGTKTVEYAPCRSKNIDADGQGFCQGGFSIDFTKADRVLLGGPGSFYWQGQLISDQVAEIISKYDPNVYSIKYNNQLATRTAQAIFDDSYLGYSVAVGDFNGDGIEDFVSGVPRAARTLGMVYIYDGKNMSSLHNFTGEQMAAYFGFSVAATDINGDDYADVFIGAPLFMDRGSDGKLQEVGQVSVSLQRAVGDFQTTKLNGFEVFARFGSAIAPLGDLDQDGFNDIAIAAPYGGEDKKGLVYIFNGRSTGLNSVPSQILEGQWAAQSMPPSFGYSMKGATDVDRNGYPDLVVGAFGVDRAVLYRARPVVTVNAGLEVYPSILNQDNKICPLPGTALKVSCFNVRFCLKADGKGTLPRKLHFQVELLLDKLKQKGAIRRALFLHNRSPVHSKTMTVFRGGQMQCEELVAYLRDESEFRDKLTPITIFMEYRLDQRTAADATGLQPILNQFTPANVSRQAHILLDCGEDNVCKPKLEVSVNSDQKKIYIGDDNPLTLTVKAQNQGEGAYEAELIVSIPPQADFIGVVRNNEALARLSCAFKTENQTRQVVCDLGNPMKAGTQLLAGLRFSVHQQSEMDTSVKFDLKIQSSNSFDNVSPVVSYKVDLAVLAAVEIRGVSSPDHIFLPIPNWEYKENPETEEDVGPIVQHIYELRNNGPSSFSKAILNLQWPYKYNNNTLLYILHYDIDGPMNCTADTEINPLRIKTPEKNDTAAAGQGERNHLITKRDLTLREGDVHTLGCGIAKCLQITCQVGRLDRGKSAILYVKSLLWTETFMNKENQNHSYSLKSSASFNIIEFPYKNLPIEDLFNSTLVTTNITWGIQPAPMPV
T1 sequence (O54890 26-717 limits assumed): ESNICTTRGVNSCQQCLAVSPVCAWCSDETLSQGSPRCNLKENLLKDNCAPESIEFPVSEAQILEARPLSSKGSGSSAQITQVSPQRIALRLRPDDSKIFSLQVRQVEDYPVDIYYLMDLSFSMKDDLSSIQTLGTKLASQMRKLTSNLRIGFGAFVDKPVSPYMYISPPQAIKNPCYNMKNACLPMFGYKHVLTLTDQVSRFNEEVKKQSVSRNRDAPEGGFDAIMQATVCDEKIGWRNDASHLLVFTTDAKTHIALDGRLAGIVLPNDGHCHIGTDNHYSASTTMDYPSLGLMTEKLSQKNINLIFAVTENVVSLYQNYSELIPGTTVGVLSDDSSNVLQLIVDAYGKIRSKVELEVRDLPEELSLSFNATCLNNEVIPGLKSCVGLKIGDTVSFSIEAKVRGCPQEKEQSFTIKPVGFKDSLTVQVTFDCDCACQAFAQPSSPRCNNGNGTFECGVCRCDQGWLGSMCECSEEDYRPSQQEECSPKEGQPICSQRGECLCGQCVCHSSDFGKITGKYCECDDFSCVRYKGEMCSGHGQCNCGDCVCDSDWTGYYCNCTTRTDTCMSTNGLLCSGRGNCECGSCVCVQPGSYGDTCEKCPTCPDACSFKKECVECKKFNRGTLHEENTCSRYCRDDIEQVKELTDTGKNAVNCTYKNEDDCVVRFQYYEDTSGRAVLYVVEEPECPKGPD
Kind of experiment: Surface plasmon resonance binding to αvβ3-integrin. The note with it: Example 2, Biacore; integrin analyte 31.25 to 125 nM; read-out: KD, binding to αvβ3-integrin receptor. The source says:
For Biacore experiments, recombinant murine (rm) CIRP was purchased from Cubasio Technology LLC (Cat #. CSB-EP613483He0), rmMFG-E8 was purchased from R&D Systems (Cat #2767-MF-050), and auß3-integrin was purchased from R&D Systems (Cat #7889-AV-050). For in vitro studies, recombinant human (rh)- and rmMFG-E8 and rmCIRP was produced by our lab as previously described (4). […] The known AA sequence of DD-2 (157 amino acids long) of murine MFG-E8 was split into ˜15 AA long sequences with a 5 AA long overlap. This portion of the peptide was designed to bind to eCIRP. The 15 AA sequences were then all tagged with three AA long, Arg-Gly-Asp (RGD), designed to bind to the integrin receptor. […] All peptides were screened in vitro for the ability to attenuate eCIRP-induced TNFα production. […]
To examine the direct interaction between rmCIRP and rmMFG-E8, surface plasmon resonance (SPR), OpenSPR (Nicoya), was performed between rmCIRP and rmMFG-E8. rmCIRP was immobilized on carboxyl sensor and rmMFG-E8 was injected as an analyte in concentrations of 15.7 nM to 250 nM. […] To evaluate binding, the analyte was injected into flow cell-1 and flow cell-2 and increasing concentrations and real-time interaction data were analyzed by TraceDrawer (Nicoya). […]
For orientation: Surface plasmon resonance follows binding to a sensor surface in real time, without labels.

Residues, ends and D or L forms follow the SMILES beside them.

For the compound `CC(C)C[C@H](NC(=O)[C@H](CC(N)=O)NC(=O)[C@H](Cc1c[nH]c2ccccc12)NC(=O)[C@@H](NC(=O)[C@H](CCCCN)NC(=O)[C@H](Cc1ccc(O)cc1)NC(=O)[C@H](CO)NC(=O)[C@H](CO)NC(=O)[C@H](CO)NC(=O)[C@H](CC(=O)O)NC(=O)CNC(=O)[C@@H](N)CCCNC(=N)N)[C@@H](C)O)C(=O)N[C@@H](CCCNC(=N)N)C(=O)N[C@@H](C)C(=O)N[C@@H](Cc1ccccc1)C(=O)NCC(=O)N[C@@H](Cc1c[nH]c2ccccc12)C(=O)N[C@@H](Cc1ccc(O)cc1)C(=O)O` [MOP3, RGDSSSYKTWNLRAFGWY] (H-RGDSSSYKTWNLRAFGWY-OH; N-terminus and C-terminus assumed), the Kd turned out to be 776 nM.
